Experimental data taken from paper PMC9686674, “Potent Anti-Inflammatory Effects of a Helix-to-Helix Peptide against Pseudomonas aeruginosa Endotoxin-Mediated Sepsis” (Antibiotics, 2022).
Ends that are not written are not given here.

Key:
[1] = tested on: Escherichia coli, Pseudomonas aeruginosa, Staphylococcus aureus, and Listeria monocytogenes; assay type: cell-based
Experimental: The antibacterial activity was examined using a microdilution assay with Eschrichia coli (ATCC 25922), P. aeruginosa (ATCC 15692) and Staphylococcus aureus (ATCC 25923), which were obtained from the American Type Culture Collection. Listeria monocytogenes (KCTC 3710) was obtained from the Korean Collection for Type Cultures. Cell survival was investigated using the 3-(4,5-dimethylthiazol-2-yl)-2,5-diphenyltetrazolium bromide assay in RAW264.7 cells. The assay was performed as described previously.

[2] = tested on: Balb/c mice lungs; experiment: LPS-induced acute lung injury (ALI) in mice; assay type: in vivo; details: 1 mg/kg intratracheal, 3 days, histology
Experimental: Figure 8 In vivo anti-inflammatory effects of peptides in acute lung injury. Pseudomonas aeruginosa LPS (500 ng) was intratracheally instilled in mice lungs. One hour after instillation, peptides were intratracheally administered, followed by monitoring for 3 days. Lungs collected from the euthanized mice were digitally visualized and tissues were stained using eosin/alcian blue, H&E, PE-conjugated TNF-α, and IL6 antibody. Bar is 50 µm.
P. aeruginosa LPS (500 ng) in 50 µL PBS was intratracheally instilled into seven-week-old female Balb/c mice. One hour after exposure, each peptide was intratracheally administered at the indicated dose in 50 µL PBS. Control mice were injected with 50 µL PBS without the peptides. Mice were monitored for signs of morbidity for 3 days after LPS exposure. Mice were euthanized using CO2 inhalation, and the lung tissues were excised and fixed in 4% paraformaldehyde. The fixed tissues were dehydrated using a series of ethanol solutions (50−100%) and embedded in paraffin. The tissues embedded with paraffin were sectioned with a thickness of 5 µm (Leica microtome, Deerfield, MA, USA). Histopathology of the lung tissues was performed using alcian blue and eosin and H&E staining. […] The stained tissue sections were observed under a fluorescence microscope (OPTINIT KCS3-160S; Korea Lab Tech, Seongnam, Gyeonggi-do, Republic of Korea).

[3] = tested on: RAW 264.7 cells; experiment: LPS-stimulated ROS generation (H2DCFDA fluorescence microscopy); assay type: cell-based, murine; details: RAW 264.7, peptides 8 µM pre-incubated 30 min, P. aeruginosa LPS 100 ng/mL, 24 h
Experimental: Figure 3 CD spectra of peptides in LPS and effects of peptides on reactive oxygen species (ROS) production. (A) Secondary structures of WIK-10, WIR-10, WIK-14, and WIKE-14 peptides (50 µM) in 1 µg/mL Pseudomonas aeruginosa LPS. (B) RAW 264.7 cells were pre-incubated in the absence or presence of peptides (8 µM) for 30 min and treated with or without LPS (100 ng/mL). After 24 h incubation, the cells were treated using H2DCFDA and incubated for […], following which the fluorescent cells were observed under a fluorescence microscope.
RAW 264.7 cells (1 × 10^6 cells/mL) plated in a 24-well plate were pre-cultured for 24 h. Peptides in RPMI-1640 medium were then pretreated to cells for 30 min and P. aeruginosa LPS (100 ng/mL) was added, followed by additional incubation for 24 h. Control cells are not treated with peptides and LPS. H2DCFDA (10 µL, final concentration 10 µM) was treated to the cells, followed by incubation for 30 min in a CO2 incubator. The cells washed with cold-PBS buffer were then observed using a fluorescence microscope (OPTINIT KCS3-160S; Korea Lab Tech, Seongnam, Gyeonggi-do, Republic of Korea).

[4] = tested on: binding between LPS and RAW 264.7 cells; experiment: Inhibition of FITC-LPS binding to RAW 264.7 cells (fluorescence microscopy and flow cytometry); assay type: cell-based, murine; details: FITC-LPS 1 µg/mL, fluorescence microscopy, dose-dependent
Experimental: Figure 4 Inhibitory effects of peptides on binding between LPS and RAW 264.7 cells. Fluorescein isothiocyanate-labeled LPS and peptides were incubated for 12 h with RAW 264.7 cells, and cells were washed with PBS, followed by observation using fluorescence microscopy.
RAW 264.7 cells cultured in Roswell Park Memorial Institute Medium (RPMI)-1640 containing 10% fetal bovine serum (FBS) were aliquoted to 1 × 10^6 cells/mL in a 24-well plate, and cultured at 37 °C, 5% CO2 incubator for 24 h. Each well was treated with 1 µg/mL of FITC-attached LPS. After 1 h, peptides were added to the wells at the indicated concentrations. After incubation for 8 h, the cells were washed with cold-PBS, observed under a fluorescence microscope, and measured using flow cytometry (Beckman Coulter CytoFlex, Brea, CA, USA).

[5] = tested on: RAW 264.7 cells; experiment: Cytokine mRNA (IL-6, TNF-α) in LPS-stimulated RAW 264.7 cells (RT-PCR); assay type: cell-based, murine; details: RAW 264.7, LPS 1 μg/mL, 32 μM peptide, 8 h, compared to only LPS-treated cells
Experimental: (§1) Figure 6 Anti-inflammatory effects of peptides in RAW 264.7 cells. (A) Secreted nitric oxide and tumor necrosis factor-α were measured from the supernatants after 24 h of LPS-stimulation with peptides (32 µM). (B) mRNA expression of RAW 264.7 cells with peptides. IL-6, interleukin-6, TNF- α, tumor necrosis factor-α; GAPDH, Glyceraldehyde 3-phosphate dehydrogenase. 1: control, 2: LPS, 3: LPS+Polymyxin B, 4: LPS+KIW-10, 5: LPS+WIK-10, 6: LPS+RIW-10, 7: LPS+WIR-10, 8: LPS+KIW-14, 9: LPS+WIK-14, 10: LPS+WIKE-14.
RAW 264.7 cells were cultured in RPMI-1640 medium containing 10% FBS, and then seeded to 5 × 10^6 cells/mL in a 6-well plate and cultured at 37 °C, 5% CO2 incubator for 24 h. Each well was treated with 1 μg/mL of LPS; after 1 h, 32 μM of each peptide was added and incubated for 8 h. Cells were collected, and total RNA was isolated using TRIzol reagent (Thermo Fisher Scientific, Waltham, MA, USA). 5′-[…]-3′ and 5′-[…]-3′ as Glyceraldehyde 3-phosphate dehydrogenase primers, 5′-[…]-3′ and 5′-[…]-3′ as IL-6 primers, and 5′-[…]-3′ and 5′-[…]-3′ as TNF-α primers were used for reverse transcription-polymerase chain reaction (RT-PCR). The PCR products generated using the Maxime RT-PCR premix kit (IntronBio, Seongnam, Gyeonggi-do, Republic of Korea) were confirmed using electrophoresis.

[6] = tested on: RAW 264.7 cells; experiment: Nitric oxide production in LPS-stimulated RAW 264.7 cells (Griess); assay type: cell-based, murine; details: RAW 264.7, P. aeruginosa LPS 1 µg/mL, peptides 32 µM, 24 h, Griess reagent
Experimental: as §1
The murine macrophage cell RAW 264.7 was grown RPMI-1640 medium supplemented with 10% FBS and then plated at a density of 1 × 10^6 cells/mL in a 24-well microplate. After incubation for 24 h, the cells were stimulated with P. aeruginosa LPS (1 µg/mL), followed by further incubation for 1 h. Peptides were incubated for 24 h. Nitrite was measured by adding 100 µL of cell culture extract to 100 µL of Griess reagent (1% sulfanilamide and 0.1% naphthylenediamine in 5% phosphoric acid). The nitrite concentrations were calculated by comparing the absorbance of sodium nitrite standard solutions. The optical density was evaluated at 550 nm in a microplate reader (Molecular Devices, Emax, CA, USA). TNF-α levels in culture supernatants were analyzed using the R&D system TNF-α EASIA kit, Minneapolis, MN, USA). The developed color was determined by measuring the OD at 490 nm in a microplate reader.

Substance	GM, geometric mean of minimum inhibitory concentration values [1]	further results
KKIIKKIIKKIWKW-NH2 [KIW-14]	2.6 ± 1.2 µM	–
KKIIKKIWKW-NH2 [KIW-10]	11 ± 1 µM	–
KKIWKKWIKI-NH2 [KWI-10]	10.5 ± 1.2 µM	–
KKIWKKWIKKIIKI-NH2 [KWI-14]	2.6 ± 0.8 µM	–
RRIIRRIWRW-NH2 [RIW-10]	8.5 ± 0.8 µM	–
RRIWRRWIRI-NH2 [RWI-10]	7 ± 1.2 µM	–
WIKKIWKKIIKEIK-NH2 [WIKE-14]	8 ± 0.8 µM	toxicity in lung tissue cells, peptide alone [2]: non-toxic
WIKKIWKKIIKKIK-NH2 [WIK-14]	2.1 ± 0.4 µM	toxicity in lung tissue cells, peptide alone [2]: toxic
WIKKIWKKIK-NH2 [WIK-10]	6.5 ± 0.8 µM	–
WIRRIWRRIR-NH2 [WIR-10]	3 ± 0.2 µM	–
melittin	–	ROS-producing level of LPS-treated cells [3]: significantly reduced
polymyxin B	–	FITC fluorescence signals in RAW 264.7 cells (FITC-LPS binding) [4]: dramatically decreased; expression levels of IL-6 and TNF-α (mRNA) [5]: clearly decreased; LPS-induced NO secretion [6]: inhibited; ROS-producing level of LPS-treated cells [3]: significantly reduced
